Results reported in patent publication US11229599B2, “Implant compositions for the unidirectional delivery of therapeutic compounds to the brain” (Board of Regents, the University of Texas System, priority 2015, dated 2022).

Experiment: Differential scanning calorimetry, physical state of APAP in glycerol behenate
Format: physicochemical
Details: FIG. 6; 5% APAP+95% glycerol behenate, physical blend and melt mix
Method: Differential scanning calorimetry testing was performed using a TA Thermal Analyzer (Model DSC Q20, TA Instruments, New Castle, Del., US). The temperature was calibrated with an indium standard. Sample size was about 5 mg and a temperature ramp of 10° C. per minute was used. Universal Analysis 2000 data analysis software was used for data analysis. Inflection point method was used for the analysis of the glass transition temperature. The melting temperature is defined as the intersection of the extension of the baseline with the tangent at the inflection point of the curve.

- physical state of APAP in glycerol behenate: dispersed as crystalline particles
Structure (SMILES): CC(=O)Nc1ccc(O)cc1 [APAP, acetaminophen]
